Data from patent publication US20100183527A1, “Cosmetic Compositions Comprising Sclareolide and Hesperidin Methyl Chalcone” (COGNIS IP MANAGEMENT GMBH, priority 2007, published 2010).

Assays:
Type in all cases: cell-based
[1] = tested on: Melanocytes (B16 cell line); test: Number of viable cells by level of cellular proteins (Bradford's method), Example 1; conditions: 3 days incubation, mean +/- SEM
Procedure: (§1) Melanocytes (B16 cell line) were inoculated in standard medium of cell culture with foetal calf serum (FCS). After an incubation of 3 day at 37° C. and CO2=5%, growth medium was exchanged for standard medium with a range of concentrations for each active ingredient to be tested and a control without ingredient. After an incubation of 3 days, the level of melanin was measured by recording the optical density at 475 nm. After washing the cells by a balanced salt solution, and homogenisation in a solution of 0.1 M NaOH, the number of viable cells was determined by evaluation of the level of cellular proteins (Bradford's method). The results are expressed in % against control (cell culture medium without compound) as a mean+/−SEM (Standard Error of Mean) on 2 or 3 assays, each in triplicate.

[2] = tested on: Melanocytes (B16 cell line); test: Number of viable cells by level of cellular proteins (Bradford's method), Example 2 combination; conditions: for Amount of cellular proteins: mean +/- SEM
Procedure: (§2) Melanocytes (B16 cell line) were inoculated in standard medium of cell culture with foetal calf serum (FCS). After an incubation for 3 days at 37° C. and CO2=5%, growth medium was exchanged for standard medium with a range of concentrations for each active ingredient to be tested and a control without ingredient. Combinations of active ingredients were tested on the same cultures, in parallel with active ingredients alone. After an incubation of 3 days, the cells were washed by a balanced salt solution, and homogenised in a solution of 0.1 M NaOH. The number of viable cells was determined by evaluation of the level of cellular proteins (Bradford's method) and the level of intracellular melanin was measured by recording the optical density at 475 nm.
(§3) The results are expressed in % against control (cell culture medium without compound) as a mean+/−SEM (Standard Error of Mean) on 5 assays, each in triplicate.

[3] = tested on: Melanocytes (B16 cell line); test: Melanogenesis stimulation assay for combination, level of intracellular melanin (optical density at 475 nm); conditions: for rate of melanin: mean +/- SEM
Procedure: as §2, §3

[4] = tested on: Melanocytes (B16 cell line); test: Melanogenesis stimulation assay, level of melanin (optical density at 475 nm); conditions: 3 days incubation, mean +/- SEM
Procedure: as §1

[5] = Sclareolide 0.000025 % (w/v) alone
[6] = Sclareolide 0.000050 % (w/v) alone

With `CC1(C)CCC[C@]2(C)[C@H]3CC(=O)O[C@]3(C)CC[C@@H]12` [Sclareolide, (3aR,5aS,9aS,9bR)— decahydro-3a,6,6,9a-tetramethyl naphtho(2,1-b)furan-2(1H)-one] the “Protein level (rate of cellular proteins)” value ([1]; Dose 0.0003 % (w/v)) was 89 +/− 11 %/control, the “Protein level (rate of cellular proteins)” value ([1]; Dose 0.001 % (w/v)) was 83 +/− 17 %/control and the “Amount of cellular proteins” value [2, 5] was 97 +/− 18 %/control. The “Amount of cellular proteins” value [2, 6] was 106 +/− 10 %/control, the “toxic effects, decrease of amount of cellular proteins (in words)” value ([2]; concentrations of Table 3, tested separately or mixed) was “do not show any toxic effects” and the rate of melanin [3, 5] was 116 +/− 7 %/control. The rate of melanin [3, 6] was 120 +/− 6 %/control, the “rate of melanin synthesis / efficacy (in words)” value ([3]; very low doses (Table 2)) was “increased the rate of melanin synthesis” and the Melanin level ([4]; Dose 0.0003 % (w/v)) was 174 +/− 55 %/control. For the same molecule, the Melanin level ([4]; Dose 0.001 % (w/v)) was 286 +/− 83 %/control.
